Results: PubChem BioAssay AID1963875 (Molecular Pharmacology Branch, DTP, NCI, 2024)

Tested on: KRAS-mutant PDC complex spheroid viability
Assay: Anticancer human tumor 186277-243-T-J2-PDC patient-derived colon adenocarcinoma cell line growth inhibition [KRAS2]
Conditions: for IC50: curve of first compound; for viability, T/C: stronger effect = lower value; active = viability on the fitted dose curve at most 10% of control; inactive = the rest
Summary of the method: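 Combination screen of spheroid viability in tumor-cell co-cultures with endothelial (HUVEC) and mesenchymal stem cell stroma. Each agent was tested in half-log dilutions, topping at clinical Cmax or at 10 microM without a known Cmax.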
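Throughout, for viability, T/C: viability read after seven days of compound exposure; 100% = DMSO vehicle-treated spheroids so lower means less viable.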

COc1cc2nccc(Oc3ccc(NC(=O)C4(C(=O)Nc5ccc(F)cc5)CC4)cc3)c2cc1OC + C=CC(=O)N1CCN(c2nc(OCC3CCCN3C)nc3c2CCN(c2cccc4cccc(C)c24)C3)CC1CC#N
1880 nM: IC50 (second compound 0.0316 µM)
1720 nM: IC50 (second compound 0.316 µM)
active: viability, T/C (second compound 1 µM, first compound 3.16 µM) 3.98% | viability, T/C (second compound 1 µM, first compound 10 µM) 0.37% | viability, T/C (second compound 3.16 µM, first compound 0.0316 µM) 0.41% | viability, T/C (second compound 3.16 µM, first compound 0.1 µM) 0.44% | viability, T/C (second compound 3.16 µM, first compound 0.316 µM) 0.24% | viability, T/C (second compound 3.16 µM, first compound 1 µM) 0.21% | viability, T/C (second compound 3.16 µM, first compound 3.16 µM) 0.13% | viability, T/C (second compound 3.16 µM, first compound 10 µM) 0.2%
inactive: viability, T/C (second compound 0.0316 µM, first compound 0.0316 µM) 108% | viability, T/C (second compound 0.0316 µM, first compound 0.1 µM) 107% | viability, T/C (second compound 0.0316 µM, first compound 0.316 µM) 114% | viability, T/C (second compound 0.0316 µM, first compound 1 µM) 95.5% | viability, T/C (second compound 0.0316 µM, first compound 3.16 µM) 12.5% | viability, T/C (second compound 0.0316 µM, first compound 10 µM) 12.3% | viability, T/C (second compound 0.1 µM, first compound 0.0316 µM) 113% | viability, T/C (second compound 0.1 µM, first compound 0.1 µM) 122% | viability, T/C (second compound 0.1 µM, first compound 0.316 µM) 110% | viability, T/C (second compound 0.1 µM, first compound 1 µM) 97.8% | viability, T/C (second compound 0.1 µM, first compound 3.16 µM) 11.4% | viability, T/C (second compound 0.1 µM, first compound 10 µM) 10.8% | viability, T/C (second compound 0.316 µM, first compound 0.0316 µM) 109% | viability, T/C (second compound 0.316 µM, first compound 0.1 µM) 108% | viability, T/C (second compound 0.316 µM, first compound 0.316 µM) 116% | viability, T/C (second compound 0.316 µM, first compound 1 µM) 85.3% | viability, T/C (second compound 0.316 µM, first compound 3.16 µM) 10.5% | viability, T/C (second compound 0.316 µM, first compound 10 µM) 11.3% | viability, T/C (second compound 1 µM, first compound 0.0316 µM) 107% | viability, T/C (second compound 1 µM, first compound 0.1 µM) 109% | viability, T/C (second compound 1 µM, first compound 0.316 µM) 112% | viability, T/C (second compound 1 µM, first compound 1 µM) 52.5%
1890 nM: IC50 (second compound 0.1 µM)
1060 nM: IC50 (second compound 1 µM)
< 31.6 nM: IC50 (second compound 3.16 µM)
